# Measured values reported in the Kinase Knowledgebase extract (Sharma et al. 2016).
# Values joined by “and” are separate entries in the source; they are usually repeats but may differ in a detail not shown here. Equal entries are not always repeated.
# Target: EGFR (UniProt P00533)
# Sequence (P00533 whole entry, looked up): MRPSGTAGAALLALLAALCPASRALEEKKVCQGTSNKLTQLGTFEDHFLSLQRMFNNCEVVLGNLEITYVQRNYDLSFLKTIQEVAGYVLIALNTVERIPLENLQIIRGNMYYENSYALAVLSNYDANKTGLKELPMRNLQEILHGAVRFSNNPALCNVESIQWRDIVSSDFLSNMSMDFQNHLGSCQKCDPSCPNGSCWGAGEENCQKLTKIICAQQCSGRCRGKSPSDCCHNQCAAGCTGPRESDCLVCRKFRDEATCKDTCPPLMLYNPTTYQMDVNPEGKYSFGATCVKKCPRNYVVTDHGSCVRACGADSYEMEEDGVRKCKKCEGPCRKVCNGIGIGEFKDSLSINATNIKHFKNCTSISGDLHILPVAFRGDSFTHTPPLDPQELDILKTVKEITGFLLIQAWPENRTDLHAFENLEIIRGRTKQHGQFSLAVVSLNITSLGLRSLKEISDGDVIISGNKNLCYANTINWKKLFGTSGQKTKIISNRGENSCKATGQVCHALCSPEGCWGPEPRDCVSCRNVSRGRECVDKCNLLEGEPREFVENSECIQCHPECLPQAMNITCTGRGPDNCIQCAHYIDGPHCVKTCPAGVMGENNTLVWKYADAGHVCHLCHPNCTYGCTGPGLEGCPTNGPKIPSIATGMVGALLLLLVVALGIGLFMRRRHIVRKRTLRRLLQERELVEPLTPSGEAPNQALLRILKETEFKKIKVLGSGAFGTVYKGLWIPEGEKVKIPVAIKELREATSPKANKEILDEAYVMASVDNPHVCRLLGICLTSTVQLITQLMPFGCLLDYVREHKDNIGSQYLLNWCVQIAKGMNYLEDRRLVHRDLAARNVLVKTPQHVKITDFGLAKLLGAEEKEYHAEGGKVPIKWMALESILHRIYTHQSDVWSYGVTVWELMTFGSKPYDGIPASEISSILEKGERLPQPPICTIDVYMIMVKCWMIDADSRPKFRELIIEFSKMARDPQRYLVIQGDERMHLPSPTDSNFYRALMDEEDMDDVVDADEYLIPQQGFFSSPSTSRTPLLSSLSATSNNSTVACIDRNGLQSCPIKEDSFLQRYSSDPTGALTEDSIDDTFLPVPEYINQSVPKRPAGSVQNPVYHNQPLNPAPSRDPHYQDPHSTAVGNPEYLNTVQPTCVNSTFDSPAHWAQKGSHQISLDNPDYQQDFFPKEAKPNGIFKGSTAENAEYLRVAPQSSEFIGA
row,SMILES,IC50
1,NC(=O)c1cccc(Nc2ncnc(-n3c(N)nc4ccccc43)n2)c1,> 4.5 µg/mL
2,Oc1ccc(Nc2ncnc(-c3ccccc3)n2)cc1,> 4.5 µg/mL
3,COc1cc(Nc2ncnc(Nc3ccc4c(cnn4C)c3)n2)cc(OC)c1OC,0.4 to 2.4 µg/mL
4,COc1cc(Nc2ncnc(N3CCN(c4ccccn4)CC3)n2)cc(OC)c1OC,> 4.5 µg/mL
5,COc1cc(Nc2ncnc(-c3cccnc3NCc3ccc(F)cc3)n2)cc(OC)c1OCCN1CCOCC1,2.4 to 3.5 µg/mL
6,CN(c1cccc(Br)c1)c1ncnc(Nc2cccc(Cc3nnn[nH]3)c2)n1,< 0.4 µg/mL
7,COc1cc(Nc2ncnc(NN3CCOCC3)n2)cc(OC)c1OC,> 4.5 µg/mL
8,COc1cc(Nc2ncnc(Nc3ccc4c(c3)OCO4)n2)cc(OC)c1OC,0.4 to 2.4 µg/mL
9,c1ccc(-c2cc(Nc3ncnc(Nc4cccc(-c5cnco5)c4)n3)[nH]n2)cc1,0.4 to 2.4 µg/mL
10,CN(c1cccc(Cl)c1)c1ncnc(N[C@@H]2CCN(Cc3ccccc3)C2)n1,> 4.5 µg/mL
11,NC(=O)Cc1cccc(Nc2ncnc(-n3c(N)nc4ccccc43)n2)c1,> 4.5 µg/mL
12,CN(c1cccc(Cl)c1)c1ncnc(Nc2ccc3c(cnn3Cc3ccccc3)c2)n1,0.4 to 2.4 µg/mL
13,COc1ccc(Nc2ncnc(Nc3ccc4c(c3)C(=O)N(C)C4=O)n2)cc1OC,> 4.5 µg/mL
14,COc1ccc(Nc2ncnc(N(C)c3ccc(S(=O)(=O)O)cc3)n2)cc1OC,> 4.5 µg/mL
15,Clc1cc(Cl)cc(Nc2ncnc(-n3cccc3)n2)c1,> 4.5 µg/mL
16,OCc1cccc(Nc2ncnc(-c3cccnc3Nc3ccccc3)n2)c1,0.4 to 2.4 µg/mL
17,COc1cc(Nc2ncnc(Nc3cc(C(C)(C)C)[nH]n3)n2)cc(OC)c1OC,0.4 to 2.4 µg/mL
18,NC(=O)c1ccc(Nc2ncnc(-c3ccccc3)n2)cc1,> 4.5 µg/mL
19,COc1ccc(Nc2ncnc(N(C)C3CCN(Cc4ccccc4)C3)n2)cc1OC (centres undefined),> 4.5 µg/mL
20,O=c1[nH]c2ccccc2n1-c1ncnc(Nc2ccc(F)c(Cl)c2)n1,> 4.5 µg/mL
21,Nc1ncnc(Nc2cccc(Cl)c2)n1,> 4.5 µg/mL
22,COc1cc(Nc2ncnc(-n3c(NCc4ccccn4)nc4ccccc43)n2)cc(OC)c1OCCN1CCOCC1,> 4.5 µg/mL
23,COc1cc(Nc2ncnc(Nc3ccc4ccccc4c3)n2)cc(OC)c1OC,0.4 to 2.4 µg/mL
24,COc1cc(Nc2ncnc(NC3CCc4ccccc43)n2)cc(OC)c1OC (centres undefined),0.4 to 2.4 µg/mL
25,CN(c1cccc(Cl)c1)c1ncnc(NC2CCN(Cc3ccccc3)CC2)n1,0.4 to 2.4 µg/mL
26,COc1cc(Nc2ncnc(Nc3ccc(S(=O)(=O)NC(C)=O)cc3)n2)cc(OC)c1OC,> 4.5 µg/mL
27,COc1cc(Nc2ncnc(-n3ccc4ccccc43)n2)cc(OC)c1OC,> 4.5 µg/mL

row,SMILES,IC50
1,COc1cc(Nc2ncnc(Nc3cccc(CC(=O)O)c3)n2)cc(OC)c1OC,< 0.4 µg/mL
2,Nc1nc2ccccc2n1-c1ncnc(Nc2ccc(Cl)cc2)n1,0.4 to 2.4 µg/mL
3,COc1cc(Nc2ncnc(NC(=O)Nc3ccccc3)n2)cc(OC)c1OC,> 4.5 µg/mL
4,O=C(O)CCc1cccc(Nc2ncnc(Nc3cc(-c4ccco4)[nH]n3)n2)c1,< 0.4 µg/mL
5,COc1cc(Nc2ncnc(-n3c(Nc4ccc(OC(F)(F)F)cc4)nc4ccccc43)n2)cc(OC)c1OC,2.4 to 3.5 µg/mL
6,NC(=O)c1ccc(Nc2ncnc(-c3cccs3)n2)cc1,> 4.5 µg/mL
7,COc1cc(Nc2ncnc(-n3c(NCCO)nc4ccccc43)n2)cc(OC)c1OC,> 4.5 µg/mL
8,COc1cc(Nc2ncnc(Nc3ccccc3)n2)cc(OC)c1OC,0.4 to 2.4 µg/mL
9,Fc1ccc(Nc2ncnc(Nc3ccc4[nH]ncc4c3)n2)cc1Cl,< 0.4 µg/mL
10,COc1cc(Nc2ncnc(-n3c(NCc4ncc[nH]4)nc4ccccc43)n2)cc(OC)c1OC,> 4.5 µg/mL
11,COc1cc(Nc2ncnc(Nc3ccc4c(c3)Cc3ccccc3-4)n2)cc(OC)c1OC,> 4.5 µg/mL
12,COc1cc(Nc2ncnc(-c3cccnc3NC3CCN(Cc4ccccc4)CC3)n2)cc(OC)c1OC,> 4.5 µg/mL
13,Clc1ccccc1Nc1ncnc(-n2cccc2)n1,> 4.5 µg/mL
14,NC(=O)c1cccc(Nc2ncnc(-c3ccccc3)n2)c1,> 4.5 µg/mL
15,COc1cc(Nc2ncnc(NN3CCCC3)n2)cc(OC)c1OC,> 4.5 µg/mL
16,CN(c1cccc(Cl)c1)c1ncnc(Nc2cc(-c3ccco3)[nH]n2)n1,< 0.4 µg/mL
17,COc1ccc(CNc2ncnc(Nc3ccc4c(cnn4Cc4ccccc4)c3)n2)cc1OC,3.5 to 4.5 µg/mL
18,COC(=O)c1ccc(-c2cc(Nc3ncnc(NCCN4CCNC4=O)n3)[nH]n2)cc1,> 4.5 µg/mL
19,COc1cc(Nc2ncnc(-n3c(NC4CCCc5ccccc54)nc4ccccc43)n2)cc(OC)c1OC (centres undefined),3.5 to 4.5 µg/mL and 2.4 to 3.5 µg/mL
20,COc1cc(Nc2ncnc(-c3c(O)n(C)c4ccccc34)n2)cc(OC)c1OC,> 4.5 µg/mL
21,COc1cc(Nc2ncnc(-n3c(NCc4cccc(C)c4)nc4ccccc43)n2)cc(OC)c1OC,> 4.5 µg/mL
22,COc1ccc(CNc2ncnc(Nc3cc(-c4ccco4)[nH]n3)n2)cc1OC,0.4 to 2.4 µg/mL
23,COc1cc(Nc2ncnc(Nc3cc(C)[nH]n3)n2)cc(OC)c1OC,3.5 to 4.5 µg/mL
24,O=c1[nH]c2ccccc2n1-c1ncnc(Nc2cnc3ccccc3c2)n1,> 4.5 µg/mL
25,COc1ccc(Nc2ncnc(-n3c(N)nc4ccccc43)n2)cc1OC,> 4.5 µg/mL
26,COc1cc(Nc2ncnc(-c3ccsc3)n2)cc(OC)c1OC,> 4.5 µg/mL
27,CC(=O)NS(=O)(=O)c1ccc(Nc2ncnc(N(C)c3cccc(Cl)c3)n2)cc1,< 0.4 µg/mL

row,SMILES,IC50
1,COc1ccc(Nc2ncnc(N(C)CCc3ccccn3)n2)cc1OC,0.4 to 2.4 µg/mL
2,COc1cc(Nc2ncnc(-n3c(NCC(C)C)nc4ccccc43)n2)cc(OC)c1OC,> 4.5 µg/mL
3,CCN(CC)CCN(C)c1ncnc(Nc2ccc(OC)c(OC)c2)n1,> 4.5 µg/mL
4,COc1cc(Nc2ncnc(N[C@H]3CCCc4ccccc43)n2)cc(OC)c1OC,3.5 to 4.5 µg/mL
5,O=c1[nH]c2ccccc2n1-c1ncnc(Nc2cccc([N+](=O)[O-])c2)n1,> 4.5 µg/mL
6,COc1cc(Nc2ncnc(Nc3cccc(Cl)c3)n2)cc(OC)c1,< 0.4 µg/mL
7,COc1cc(Nc2ncnc(-c3cccnc3NC(C)C)n2)cc(OC)c1OC,> 4.5 µg/mL
8,COc1cc(Nc2ncnc(-n3c(NCc4ccc(OC(F)(F)F)cc4)nc4ccccc43)n2)cc(OC)c1OC,> 4.5 µg/mL
9,CN(c1cccc(Cl)c1)c1ncnc(N(C)c2cccc(Cl)c2)n1,0.4 to 2.4 µg/mL
10,COc1cc(Nc2ncnc(Nc3cccc(C)c3)n2)cc(OC)c1OC,< 0.4 µg/mL
11,COc1cc(Nc2ncnc(Nc3ccc4c(c3)CCC4)n2)cc(OC)c1OC,0.4 to 2.4 µg/mL
12,COc1cc(Nc2ncnc(Nc3ccc(O)cc3Cl)n2)cc(OC)c1OC,0.4 to 2.4 µg/mL
13,COc1ccc(Nc2ncnc(N(C)c3cccc(Cl)c3)n2)cc1,< 0.4 µg/mL
14,Cc1ccc(Nc2ncnc(-n3cccc3)n2)cc1Cl,> 4.5 µg/mL
15,COc1ccc(Nc2ncnc(-c3ccccc3)n2)cc1,> 4.5 µg/mL
16,COc1cc(Nc2ncnc(-n3c(NC(CCO)c4ccccc4)nc4ccccc43)n2)cc(OC)c1OC (centres undefined),> 4.5 µg/mL
17,COc1cc(Nc2ncnc(Nc3ccccc3F)n2)cc(OC)c1OC,< 0.4 µg/mL
18,COc1cc(Nc2ncnc(Nc3ccc(NC(=O)OC(C)(C)C)cc3)n2)cc(OC)c1OC,> 4.5 µg/mL
19,Cc1ccc2c(c1)CCCN2c1ncnc(Nc2ccc3c(c2)C(=O)OC3)n1,< 0.4 µg/mL
20,Cc1ccc2c(c1)CCCN2c1ncnc(NCC2CCCO2)n1 (centres undefined),> 4.5 µg/mL
21,COC(=O)c1ccc(-c2cc(Nc3ncnc(Nc4cccc(C(N)=O)c4)n3)[nH]n2)cc1,> 4.5 µg/mL
22,COc1cc(Nc2ncnc(Nc3ccc(C(C)=O)cc3)n2)cc(OC)c1OC,2.4 to 3.5 µg/mL
23,COc1cc(Nc2ncnc(-c3ccc(C)cc3)n2)cc(OC)c1OC,> 4.5 µg/mL
24,COc1cc(Nc2ncnc(Nc3cc(C)c(O)cc3C)n2)cc(OC)c1OC,< 0.4 µg/mL
25,CC(C)(C)c1cc(Nc2ncnc(Cl)n2)[nH]n1,> 4.5 µg/mL
